From publication PMC9019904, “AD Informer Set: Chemical tools to facilitate Alzheimer's disease drug discovery” (Alzheimer's & Dementia : Translational Research & Clinical …, 2022)
≈ marks a conversion by molar mass, not a printed value.

Columns and labels:
[1] = test system: HMC3 (human microglia) cell line; experiment: pHrodo-myelin phagocytosis/cell viability high content imaging assay: viability (cell count, nuclear area, nuclear intensity)
Method in brief: (§1)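 Cells adhered overnight, then were exposed to compounds at a single 10 μM for 48 h in total, with pHrodo-myelin added for the last 20 h. High-content imaging gave cell count per well as the main viability measure plus mean nuclear intensity per cell. Duplicate wells were averaged and expressed as % of untreated control.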

[2] = Kinetic solubility in aqueous buffer pH 7.4 by total chemiluminescent nitrogen determination (Analiza); settings: aqueous buffer, pH 7.4, aqueous buffer, kinetic from dmso stock
[3] = test system: HMC3 (human microglia) cell line; experiment: pHrodo-myelin phagocytosis/cell viability high content imaging assay: phagocytosis signal; assay type: cell-based
Method in brief: (§2)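 HCI read-out ~22 h post pHrodo-myelin; phagocytosis + viability simultaneously; 3 parameters extracted; intensity up = early apoptosis, down = later apoptosis.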

[4] = test system: BV2 (mouse microglia) cell line; experiment: pHrodo-myelin phagocytosis/cell viability high content imaging assay: viability (cell count, nuclear area, nuclear intensity)
Method in brief: as §1

[5] = test system: BV2 (mouse microglia) cell line; experiment: pHrodo-myelin phagocytosis/cell viability high content imaging assay: phagocytosis signal; assay type: cell-based
Method in brief: as §2

CCn1cc(C(=O)O)c(=O)c2c(N)c(F)c(NC3CCCCC3)cc21 [AS1842856]
Human microglial cytotoxicity at 10 μM (<70% control) ([1]; 10 μM, HMC3): Y (The compound was found to be cytotoxic (cell count threshold: <70% control) when human immortalized microglial cells were dosed at 10 μM (Y: yes))
solubility kinetic [2]: 6.5 µM (≈ 2.26 µg/mL)
Inhibition of human microglial phagocytosis at 10 μM (<70% control) ([3]; 10 μM, HMC3): Y (The compound was found to inhibit phagocytosis (response threshold: <70% control) when human immortalized microglial cells were dosed at 10 μM (Y: yes))

C[C@H](NC(=O)c1sccc1OCc1ccc(Cl)cc1)c1ccccc1 [AS1949490]
solubility kinetic [2]: < 2.1 µM
Inhibition of human microglial phagocytosis at 10 μM (<70% control) ([3]; 10 μM, HMC3): Y (The compound was found to inhibit phagocytosis (response threshold: <70% control) when human immortalized microglial cells were dosed at 10 μM (Y: yes))

COc1cc(N2CCC(N3CCN(C)CC3)CC2)ccc1Nc1ncc(Cl)c(Nc2ccccc2P(C)(C)=O)n1 [Brigatinib]
Mouse microglial cytotoxicity at 10 μM (<70% control) ([4]; BV2, 10 μM): Y (The compound was found to be cytotoxic (cell count threshold: <70% control) when murine immortalized microglial cells were dosed at 10 μM (Y: yes))
solubility kinetic [2]: 123 µM (≈ 72.1 µg/mL)
Stimulation of mouse microglial phagocytosis at 10 μM (>150% control) ([5]; BV2, 10 μM): Y (The compound was found to stimulate phagocytosis (response threshold: >150% control) when murine immortalized microglial cells were dosed at 10 μM (Y: yes))

CCCC[C@@H](C=O)NC(=O)[C@H](CC(C)C)NC(=O)OCc1ccccc1 [Calpeptin]
solubility kinetic [2]: 170 µM (≈ 61.4 µg/mL)
Stimulation of mouse microglial phagocytosis at 10 μM (>150% control) ([5]; BV2, 10 μM): Y (The compound was found to stimulate phagocytosis (response threshold: >150% control) when murine immortalized microglial cells were dosed at 10 μM (Y: yes))
Inhibition of human microglial phagocytosis at 10 μM (<70% control) ([3]; HMC3, 10 μM): Y (The compound was found to inhibit phagocytosis (response threshold: <70% control) when human immortalized microglial cells were dosed at 10 μM (Y: yes))

CCS(=O)(=O)N1CCN(c2ccc(Nc3ncc(C(N)=O)c(NC4CC4)n3)cc2)CC1 [Cerdulatinib]
Mouse microglial cytotoxicity at 10 μM (<70% control) ([4]; BV2, 10 μM, cell count <70% control): Y (The compound was found to be cytotoxic (cell count threshold: <70% control) when murine immortalized microglial cells were dosed at 10 μM (Y: yes))
Human microglial cytotoxicity at 10 μM (<70% control) ([1]; HMC3, 10 μM, cell count <70% control): Y (The compound was found to be cytotoxic (cell count threshold: <70% control) when human immortalized microglial cells were dosed at 10 μM (Y: yes))
solubility kinetic [2]: 1.8 µM (≈ 0.802 µg/mL)
Inhibition of mouse microglial phagocytosis at 10 μM (<70% control) ([5]; BV2, 10 μM): Y (The compound was found to inhibit phagocytosis (response threshold: <70% control) when murine immortalized microglial cells were dosed at 10 μM (Y: yes))

CCN(CC)c1ccc(/C=N/NC(=O)c2ccc(O)cc2)cc1 [DY131]
Mouse microglial cytotoxicity at 10 μM (<70% control) ([4]; BV2, 10 μM): Y (The compound was found to be cytotoxic (cell count threshold: <70% control) when murine immortalized microglial cells were dosed at 10 μM (Y: yes))
solubility kinetic [2]: 4.5 µM (≈ 1.4 µg/mL)
Inhibition of human microglial phagocytosis at 10 μM (<70% control) ([3]; HMC3, 10 μM): Y (The compound was found to inhibit phagocytosis (response threshold: <70% control) when human immortalized microglial cells were dosed at 10 μM (Y: yes))

CNc1nc(C)nc(N[C@H]2CCC[C@@H](C(=O)NCc3ccc(C#N)cc3C(F)(F)F)C2)n1 [GSK2256294A]
solubility kinetic [2]: 148 µM (≈ 66 µg/mL)
Inhibition of human microglial phagocytosis at 10 μM (<70% control) ([3]; HMC3, 10 μM): Y (The compound was found to inhibit phagocytosis (response threshold: <70% control) when human immortalized microglial cells were dosed at 10 μM (Y: yes))

CN(C)CCCn1c(N)c(-c2nc3ccccc3[nH]2)c2nc3ccccc3nc21 [INI-43]
solubility kinetic [2]: 5.9 µM (≈ 2.27 µg/mL)
Inhibition of human microglial phagocytosis at 10 μM (<70% control) ([3]; 10 μM, HMC3): Y (The compound was found to inhibit phagocytosis (response threshold: <70% control) when human immortalized microglial cells were dosed at 10 μM (Y: yes))

CC(Nc1nc(N2CCCC2)nc2ccccc12)c1ccccc1 (centres unmarked) [Importazole]
Mouse microglial cytotoxicity at 10 μM (<70% control) ([4]; 10 μM, BV2): Y (The compound was found to be cytotoxic (cell count threshold: <70% control) when murine immortalized microglial cells were dosed at 10 μM (Y: yes))
Human microglial cytotoxicity at 10 μM (<70% control) ([1]; 10 μM, HMC3): Y (The compound was found to be cytotoxic (cell count threshold: <70% control) when human immortalized microglial cells were dosed at 10 μM (Y: yes))
solubility kinetic [2]: 42.1 µM (≈ 13.4 µg/mL)
Inhibition of human microglial phagocytosis at 10 μM (<70% control) ([3]; 10 μM, HMC3): Y (The compound was found to inhibit phagocytosis (response threshold: <70% control) when human immortalized microglial cells were dosed at 10 μM (Y: yes))

Clc1ccc(N/N=C(\c2ccccc2)c2ccccn2)nc1 [JIB-04]
Mouse microglial cytotoxicity at 10 μM (<70% control) ([4]; 10 μM, BV2): Y (The compound was found to be cytotoxic (cell count threshold: <70% control) when murine immortalized microglial cells were dosed at 10 μM (Y: yes))
solubility kinetic [2]: 24.3 µM (≈ 7.5 µg/mL)
Stimulation of mouse microglial phagocytosis at 10 μM (>150% control) ([5]; 10 μM, BV2): Y (The compound was found to stimulate phagocytosis (response threshold: >150% control) when murine immortalized microglial cells were dosed at 10 μM (Y: yes))

c1ccc(-c2nn3c(c2-c2ccnc4cc(OCCN5CCOCC5)ccc24)CCC3)nc1 [LY2109761]
solubility kinetic [2]: 114 µM (≈ 50.6 µg/mL)
Inhibition of human microglial phagocytosis at 10 μM (<70% control) ([3]; HMC3, 10 μM): Y (The compound was found to inhibit phagocytosis (response threshold: <70% control) when human immortalized microglial cells were dosed at 10 μM (Y: yes))

Cc1cc(NC(=O)Nc2ccc(F)c(F)c2)n(-c2ccccc2)n1 [ML 297]
solubility kinetic [2]: 49.9 µM (≈ 16.4 µg/mL)
Stimulation of mouse microglial phagocytosis at 10 μM (>150% control) ([5]; 10 μM, BV2): Y (The compound was found to stimulate phagocytosis (response threshold: >150% control) when murine immortalized microglial cells were dosed at 10 μM (Y: yes))

OC(c1cc(C23CC4CC(CC(C4)C2)C3)nc2c(Cl)cc(Cl)cc12)C1CCCCN1 (centres unmarked) [NSC305787]
Mouse microglial cytotoxicity at 10 μM (<70% control) ([4]; BV2, 10 μM): Y (The compound was found to be cytotoxic (cell count threshold: <70% control) when murine immortalized microglial cells were dosed at 10 μM (Y: yes))
solubility kinetic [2]: < 1.1 µM
Inhibition of human microglial phagocytosis at 10 μM (<70% control) ([3]; HMC3, 10 μM): Y (The compound was found to inhibit phagocytosis (response threshold: <70% control) when human immortalized microglial cells were dosed at 10 μM (Y: yes))

Oc1cc(CNC(=S)/C=C/c2cc(O)c(O)c(Br)c2)cc(O)c1O [NT157]
Mouse microglial cytotoxicity at 10 μM (<70% control) ([4]; 10 μM, BV2): Y (The compound was found to be cytotoxic (cell count threshold: <70% control) when murine immortalized microglial cells were dosed at 10 μM (Y: yes))
Human microglial cytotoxicity at 10 μM (<70% control) ([1]; 10 μM, HMC3): Y (The compound was found to be cytotoxic (cell count threshold: <70% control) when human immortalized microglial cells were dosed at 10 μM (Y: yes))
solubility kinetic [2]: 79.7 µM (≈ 32.9 µg/mL)
Stimulation of mouse microglial phagocytosis at 10 μM (>150% control) ([5]; 10 μM, BV2): Y (The compound was found to stimulate phagocytosis (response threshold: >150% control) when murine immortalized microglial cells were dosed at 10 μM (Y: yes))

O=C(NNc1nc2cc(F)ccc2n2cccc12)c1cnccn1 [SC144]
Mouse microglial cytotoxicity at 10 μM (<70% control) ([4]; 10 μM, BV2): Y (The compound was found to be cytotoxic (cell count threshold: <70% control) when murine immortalized microglial cells were dosed at 10 μM (Y: yes))
solubility kinetic [2]: 2.7 µM (≈ 0.87 µg/mL)
Stimulation of mouse microglial phagocytosis at 10 μM (>150% control) ([5]; 10 μM, BV2): Y (The compound was found to stimulate phagocytosis (response threshold: >150% control) when murine immortalized microglial cells were dosed at 10 μM (Y: yes))

CC(C)(C)c1cnc(CSc2cnc(NC(=O)C3CCNCC3)s2)o1 [SNS-032]
Mouse microglial cytotoxicity at 10 μM (<70% control) ([4]; BV2, 10 μM): Y (The compound was found to be cytotoxic (cell count threshold: <70% control) when murine immortalized microglial cells were dosed at 10 μM (Y: yes))
Human microglial cytotoxicity at 10 μM (<70% control) ([1]; HMC3, 10 μM): Y (The compound was found to be cytotoxic (cell count threshold: <70% control) when human immortalized microglial cells were dosed at 10 μM (Y: yes))
solubility kinetic [2]: 138 µM (≈ 52.3 µg/mL)
Stimulation of human microglial phagocytosis at 10 μM (>150% control) ([3]; HMC3, 10 μM): Y (The compound was found to stimulate phagocytosis (response threshold: >150% control) when human immortalized microglial cells were dosed at 10 μM (Y: yes))

C=CC[C@@H]1/C=C(\C)C[C@H](C)C[C@H](OC)[C@H]2O[C@@](O)(C(=O)C(=O)N3CCCC[C@H]3C(=O)O[C@H](/C(C)=C/[C@@H]3CC[C@@H](O)[C@H](OC)C3)[C@H](C)[C@@H](O)CC1=O)[C@H](C)C[C@@H]2OC [Tacrolimus]
Mouse microglial cytotoxicity at 10 μM (<70% control) ([4]; 10 μM, BV2): Y (The compound was found to be cytotoxic (cell count threshold: <70% control) when murine immortalized microglial cells were dosed at 10 μM (Y: yes))
solubility kinetic [2]: 95.5 µM (≈ 76.8 µg/mL)
Stimulation of mouse microglial phagocytosis at 10 μM (>150% control) ([5]; 10 μM, BV2): Y (The compound was found to stimulate phagocytosis (response threshold: >150% control) when murine immortalized microglial cells were dosed at 10 μM (Y: yes))

Cc1ccccc1C(=O)Nc1ccc(C(=O)N2CCCC(O)c3cc(Cl)ccc32)c(C)c1 (centres unmarked) [Tolvaptan]
solubility kinetic [2]: 31.8 µM (≈ 14.3 µg/mL)
Stimulation of mouse microglial phagocytosis at 10 μM (>150% control) ([5]; BV2, 10 μM): Y (The compound was found to stimulate phagocytosis (response threshold: >150% control) when murine immortalized microglial cells were dosed at 10 μM (Y: yes))

N#Cc1ccc(COC[C@H]2O[C@@H](n3c(NCc4ccc(Cl)c(Cl)c4)nc4c(N)ncnc43)[C@H](O)[C@@H]2O)cc1 [VER-155008]
Mouse microglial cytotoxicity at 10 μM (<70% control) ([4]; 10 μM, BV2): Y (The compound was found to be cytotoxic (cell count threshold: <70% control) when murine immortalized microglial cells were dosed at 10 μM (Y: yes))
solubility kinetic [2]: 14.3 µM (≈ 7.96 µg/mL)
Stimulation of mouse microglial phagocytosis at 10 μM (>150% control) ([5]; 10 μM, BV2): Y (The compound was found to stimulate phagocytosis (response threshold: >150% control) when murine immortalized microglial cells were dosed at 10 μM (Y: yes))

CC1(C)CCC(CN2CCN(c3ccc(C(=O)NS(=O)(=O)c4ccc(NCC5CCOCC5)c([N+](=O)[O-])c4)c(Oc4cnc5[nH]ccc5c4)c3)CC2)=C(c2ccc(Cl)cc2)C1 [Venetoclax (ABT-199)]
solubility kinetic [2]: 6.3 µM (≈ 5.47 µg/mL)
Stimulation of mouse microglial phagocytosis at 10 μM (>150% control) ([5]; BV2, 10 μM): Y (The compound was found to stimulate phagocytosis (response threshold: >150% control) when murine immortalized microglial cells were dosed at 10 μM (Y: yes))

O=C(O)c1cc2nc(-c3ccc(Cl)cc3)cc(C(F)(F)F)n2n1 [ZINC00184372]
solubility kinetic [2]: 270 µM (≈ 92.2 µg/mL)
Stimulation of mouse microglial phagocytosis at 10 μM (>150% control) ([5]; 10 μM, BV2): Y (The compound was found to stimulate phagocytosis (response threshold: >150% control) when murine immortalized microglial cells were dosed at 10 μM (Y: yes))
